Test results taken from US5753691A, “Agents for inhibiting the production of IL-1β and the release of TNFα” (Nisshin Flour Milling Co., Ltd., priority 1994, dated 1998).

Tests used:
IL-1β = assay: Inhibition of IL-1β production in THP-1 cells stimulated with PMA and polyinosic acid (enzyme immunoassay); type: cell-based; conditions: Homo sapiens, 3×10^6 cells/ml, compound 1 h, then PMA 2 μg/ml and polyinosic acid 200 μg/ml, 24 h, supernatant
Description: The pyrrolidinone derivatives of the present invention were evaluated for the activity to inhibit the production of IL-1β, in accordance with the following method.
(§1) Then, 12-o-tetradecanoylphorbol-13-acetate (PMA) and polyinosic acid were added to each well so as to provide final concentrations of 2 μg/ml and 200 μg/ml, respectively. […] After incubation, a supernatant was recovered from each well by means of Pipetteman available from Gilson Co., Ltd. Then, an amount of the IL-1β in the supernatant was assayed by means of the enzyme immunoassay kit available from Cayman Chemical Co., Ltd.
(§2) The results are summarized below, expressed in terms of IC50 values in μM unit, wherein the amount of IL-1β produced at the time of no addition of the pyrrolidinone derivative is defined as 100 and the concentration of each test compound of the present invention to inhibit 50% the IL-1β production is defined as IC50.

TNFα = assay: Inhibition of TNFα release from THP-1 cells stimulated with PMA and polyinosic acid (human TNFα ELISA); type: cell-based; conditions: 3×10^6 cells/ml, compound 1 h, then PMA 2 μg/ml and polyinosic acid 200 μg/ml, 24 h, supernatant
Description: The pyrrolidinone derivatives of the present invention were evaluated for the activity to inhibit the release of TNFα, in accordance with the following method.
as §1, with “PMA” for “12-o-tetradecanoylphorbol-13-acetate (PMA)”, “An” for “Then, an”, “TNFα” for “the IL-1β”, “human TNFα ELISA” for “enzyme immunoassay”, “Genzyme” for “Cayman Chemical”
as §2, with “TNFα released” for “IL-1β produced”, “derivatives” for “derivative”, “TNFα release” for “IL-1β production”

Structure (SMILES)	IC50 (IL-1β) [µM]	IC50 (TNFα) [µM]	cytotoxicity (THP-1 cells)
COc1ccc(C=CC(=O)N2CCCC2=O)cc1 [Compound 4]	73		
O=C(C=Cc1ccncc1)N1CCCC1=O [Compound 14]	42		
COc1ccc(C=CC(=O)N2CCCC2=O)cc1OC [Compound 5]	69	16	
COc1cccc(C=CC(=O)N2CCCC2=O)c1 [Compound 3]	73		
O=C(C=Cc1ccc([N+](=O)[O-])cc1[N+](=O)[O-])N1CCCC1=O [Compound 10]			no cytotoxicity was found
O=C(C=Cc1ccccn1)N1CCCC1=O [Compound 12]	1.4	4.6	
O=C(C=Cc1ccccc1)N1CCCC1=O [Compound 1]	26	2.8	
COc1ccccc1C=CC(=O)N1CCCC1=O [Compound 2]	86		
O=C(C=Cc1ccc([N+](=O)[O-])cc1)N1CCCC1=O [Compound 9]	13	3	
O=C(C=Cc1cccnc1)N1CCCC1=O [Compound 13]	48	30	
